# Experimental data reported in patent US20240376547A1, “ONCOLOGIC VARIATIONS ASSOCIATED WITH CANCER AND METHODS OF TREATMENT” (LINNAEUS THERAPEUTICS, INC., priority 2021, published 2024).
# Entries after “also recorded” stand apart in the source; their conditions may differ.
# What was measured:
# [1] = system: EML4-ALK A549 NSCLC cells; experiment: CCK-8 proliferation assay of parental and EML4-ALK A549 NSCLC cells; format: cell-based; settings: EML4-ALK A549 cells compared with parental (control) A549 cells, 4 days treatment, 0.98-500 nM
# Method: (§1) Parental cells and EML4-ALK A549 NSCLC cells (5,000 cells) were plated in a 96-well tissue culture plate. Cells were treated with an array of ½ dilutions of LNS8801 for 4 days with 4 technical replicates for each condition (500 nM, 250 nM, 125 nM, 62.5 nM, 31.25 nM, 15.83 nM, 7.81 nM, 3.91M, 1.95 nM, 0.98 nM and 0 nM). After 4 days, relative viable cells were determined by Incubating cells with CCK-8 proliferation dye for 1 hour and measuring absorbance at 450 nm. Relative cell numbers were calculated by subtracting baseline absorbance of the media followed by normalization to the 0 nM treated control wells.
# [2] = system: Crizotinib resistant EML4-ALK A549 NSCLC cells; experiment: CCK-8 proliferation assay of Crizotinib naive or resistant EML4-ALK A549 NSCLC cells; format: cell-based; settings: 4 days treatment, normalized to 0 nM control
# Method: as §1, with “Cells” for “Parental cells and EML4-ALK A549 NSCLC cells (5,000 cells) were plated in a 96-well tissue culture plate. Cells”, “[…]” for “½”, “15.63” for “15.83”, “3.91 nM,” for “3.91M,”, “incubating” for “Incubating”, “hour,” for “hour”
# After 4 days, relative viable cells were determined by incubating cells with CCK-8 proliferation dye for 1 hour, and measuring absorbance at 450 nm. Relative cell numbers were calculated by subtracting baseline absorbance of the media followed by normalization to the 0 nM treated control wells.
smiles,measurement,setting,value
CC(=O)c1ccc2c(c1)[C@@H]1C=CC[C@@H]1[C@H](c1cc3c(cc1Br)OCO3)N2 [LNS8801],cell viability (relative viable cells),[1],effectively reduced EML4-ALK A549 cell viability over control A549 cells; also recorded: ALK+ NSCLC cells are more sensitive to LNS8801 than isogenic controls
same,relative viability of Crizotinib-resistant cells,[2],able to effectively reduce viability; also recorded: has activity in the setting of ALK-inhibitor resistance
